The values that follow come from patent US20090047567A1, “Biofuel cell, method for producing the same, electronic apparatus, enzyme-immobilized electrode, and method for producing the same” (SONY CORPORATION, priority 2007, published 2009).

In data set [1] the test system is diaphorase (DI). As to the kind of experiment: Michaelis constant Km and rate constant kcat of the enzymatic reaction using the electron mediator as a substrate (cyclic voltammetry in a solution containing NADH and DI). The class given is biochemical, Bacillus stearothermophilus. To be noted: for ten times Km: 10 x Km of the electron mediator for DI, read-out: ten times the determined Km; for Km / kcat: electron mediator as substrate of DI, solution containing sufficient amounts of NADH and DI. An excerpt:
GDH (EC1. 1. 1. 47) derived from Bacillus sp. was used as GDH, and DI(EC. 1. 6. 99. −) derived from Bacillus stearothermophilus was used as DI. Both were purchased from Amano Enzyme Inc. (Japan) and directly used without further purification. NADH, poly-L-lycine (PLL, Mw=about 93,800), and sodium polyacrylate (PAANa, Mw=about 240,000) were purchased from Sigma-Aldrich Co. VK3 was purchased from Nacalai Tesque, Inc. (Japan).
Then, the method for measuring the Michaelis constant Km and rate constant kcat of the enzymatic reaction using the electron mediator as a substrate is described.
The following electrochemical equation is established between the Michaelis constant Km and rate constant kcat (R. Matsumoto et al, J. Electroanal. Chem. 535 (2002)37).
wherein Is^lim is the current value of a flat portion of a curve obtained by cyclic voltammetry, nM is the number of electrons of the electron mediator, ns is the number of electrons of the substrate, F is the Faraday constant, A is the electrode surface area, DM is the diffusion constant of the substrate, [E] is the enzyme concentration, and [M]* is the concentration of the electron mediator.

Data set [2] in a line: Redox potential of the electron mediator by cyclic voltammetry in solution. The class given is physicochemical.
The nature of data set [3]: Cyclic voltammetry of the GC bio-anode with immobilized VK3, no glucose. To be noted: immobilized VK3 on GC bio-anode; 0.1 M phosphate buffer pH 7.0, glucose absent; vs. Ag|AgCl. The class given is physicochemical. How it is done: The surface of a glassy carbon (GC) electrode of 3 mm in diameter which was purchased from BAS Inc. was polished with alumina powder having a particle diameter of 0.05 μm and washed with distilled water. Then, GDH, NADH, DI, and VK3 were immobilized on the GC electrode by a polyion complex method using electrostatic interaction between PAAcNa as polyanion and poly-L-lycine (PLL) as polycation according to the following procedures.
On the GC electrode, 10 μl of an aqueous PLL solution (2% (w/v)), 8 μl of a GDH solution (1 U/μl in a 0.1 M phosphate buffer solution (NaH2PO4 buffer solution) (pH 7.0)), 8 μl of a DI solution (10 U/μl in a phosphate buffer solution), 2 μl of a NADH solution (0.9 μmol/μl in a phosphate buffer solution), 4 μl of a VK3 solution (0.29 M in acetone), and 4 μl of an aqueous PAAcNa solution (0.066% (w/v)) were added in that order. After each of the addition steps, drying was performed at 40° C. for 10 minutes. Before electrochemical measurement, the GC electrode (referred to as a “GC bio-anode” hereinafter) on which an immobilized layer had been formed as described above was rinsed with distilled water for 5 minutes.
Cyclic voltammetry (CV) was performed using the GC bio-anode as a working electrode. […]

Usually Km stands for the substrate concentration at which the rate is half of its maximum. Broadly, the kcat is the number of substrate molecules converted per active site and unit of time at saturation. For `NC1=C(C(=O)O)C(=O)c2ccccc2C1=O` [ACNQ, 2-amino-3-carboxy-1,4-naphthoquinone], in data set [1], the ten times Km stood at 20 µM, the Km amounted to 2 µM and the kcat was 400 s⁻¹. Also, in data set [2], the “E^o′ vs Ag|AgCl” value is given as −0.26.
As for `NC1=CC(=O)c2ccccc2C1=O` [ANQ, 2-amino-1,4-naphthoquinone], in data set [1], the ten times Km turned out to be 360 µM, the Km is 36 µM and the kcat came to 310 s⁻¹. Besides, the “E^o′ vs Ag|AgCl” value in data set [2] is −0.35.
On to `CC1=CC(=O)c2ccccc2C1=O` [VK3, 2-methyl-1,4-naphthoquinone], for which the “middle point potential of oxidation and reduction waves” value in data set [3] is −0.17 V. For the same molecule, in data set [1], the ten times Km was 4 µM, the Km came to 0.4 µM and the kcat turned out to be 630 s⁻¹. In addition, in data set [2], the “E^o′ vs Ag|AgCl” value is −0.22.
